Data as given in PubChem BioAssay (NCI).
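Following 48 hours of exposure in 96-well plates, responses at five concentrations were used to interpolate endpoints linearly. GI50: concentration for 50% inhibition of growth. TGI is the concentration that stops growth completely.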

Key:
Test in all cases: NCI-60 cell line screen, 48 h
[1] = tested on: SF-268 CNS
[2] = tested on: PC-3 prostate
[3] = tested on: UACC-257 melanoma
[4] = tested on: SF-539 CNS
[5] = tested on: TK-10 renal
[6] = tested on: HCT-15 colon
[7] = tested on: BT-549 breast
[8] = tested on: M14 melanoma
[9] = tested on: NCI-H226 lung
[10] = tested on: OVCAR-4 ovarian
[11] = tested on: K-562 leukemia
[12] = tested on: SK-OV-3 ovarian
[13] = tested on: RXF 393 renal
[14] = tested on: SW-620 colon
[15] = tested on: SK-MEL-5 melanoma
[16] = tested on: SR leukemia
[17] = tested on: HCC-2998 colon
[18] = tested on: CAKI-1 renal
[19] = tested on: SN12C renal
[20] = tested on: SNB-75 CNS
[21] = tested on: NCI-H460 lung
[22] = tested on: OVCAR-5 ovarian
[23] = tested on: 786-0 renal
[24] = tested on: CCRF-CEM leukemia
[25] = tested on: RPMI-8226 leukemia
[26] = tested on: HOP-62 NSCLC
[27] = tested on: LOX IMVI melanoma
[28] = tested on: MDA-MB-435
[29] = tested on: SK-MEL-28 melanoma
[30] = tested on: A498 renal
[31] = tested on: T-47D breast
[32] = tested on: MALME-3M melanoma
[33] = tested on: IGROV1 ovarian
[34] = tested on: HCT-116 colon
[35] = tested on: NCI/ADR-RES ovarian
[36] = tested on: OVCAR-3 ovarian
[37] = tested on: HS 578T breast
[38] = tested on: SK-MEL-2 melanoma
[39] = tested on: A549 NSCLC
[40] = tested on: NCI-H522 lung
[41] = tested on: NCI-H23 lung
[42] = tested on: MDA-MB-468 breast
[43] = tested on: OVCAR-8 ovarian
[44] = tested on: MDA-MB-231 breast
[45] = tested on: SF-295 CNS
[46] = tested on: EKVX NSCLC
[47] = tested on: MOLT-4 leukemia
[48] = tested on: HT29 colon
[49] = tested on: U251 CNS
[50] = tested on: ACHN renal
[51] = tested on: HOP-92 NSCLC
[52] = tested on: HL-60(TB) leukemia
[53] = tested on: UACC-62 melanoma
[54] = tested on: MCF7 breast
[55] = tested on: SNB-19 CNS
[56] = tested on: UO-31 renal
[57] = tested on: DU-145 prostate
[58] = tested on: KM12 colon
[59] = tested on: COLO 205 colon

## Cc1ccc(C2CC(c3ccc(NC(=O)Nc4ccccc4)cc3)=NN2c2ccc(S(N)(=O)=O)cc2)cc1 (stereo not drawn)
[1]
  GI50: 10.2 µM
  TGI: 24 µM
[2]
  GI50: 2.6 µM
  TGI: 12.8 µM
[3]
  GI50: 8.48 µM
  TGI: 22 µM
[4]
  GI50: 12.7 µM
  TGI: 25.4 µM
[5]
  GI50: 9.93 µM
  TGI: 22.2 µM
[6]
  GI50: 4.35 µM
  TGI: 16.9 µM
[7]
  GI50: 7.84 µM
  TGI: 20.9 µM
[8]
  GI50: 9.27 µM
  TGI: 27.2 µM
[9]
  GI50: 10.9 µM
  TGI: 24.9 µM
[10]
  GI50: 4.5 µM
  TGI: 17.2 µM
[11]
  GI50: 3.94 µM
  TGI: > 100 µM
[12]
  GI50: 12.9 µM
  TGI: 27.1 µM
[13]
  GI50: 13.1 µM
  TGI: 27.6 µM
[14]
  GI50: 5.53 µM
  TGI: 22.3 µM
[15]
  GI50: 15.5 µM
  TGI: 29.5 µM
[16]
  GI50: 4.28 µM
  TGI: 26.7 µM
[17]
  GI50: 2.65 µM
  TGI: 8.77 µM
[18]
  GI50: 10.4 µM
  TGI: 22.5 µM
[19]
  GI50: 3.92 µM
  TGI: 14.5 µM
[20]
  GI50: 10.7 µM
  TGI: 24 µM
[21]
  GI50: 2.99 µM
  TGI: 12.5 µM
[22]
  GI50: 12.4 µM
  TGI: 25.2 µM
[23]
  GI50: 3.86 µM
  TGI: 15.7 µM
[24]
  GI50: 3.98 µM
  TGI: 22 µM
[25]
  GI50: 3.8 µM
  TGI: 35.9 µM
[26]
  GI50: 13.3 µM
  TGI: 28.7 µM
[27]
  GI50: 1.76 µM
  TGI: 3.23 µM
[28]
  GI50: 6.83 µM
  TGI: 21.3 µM
[29]
  GI50: 10.5 µM
  TGI: 22.5 µM
[30]
  GI50: 9.06 µM
  TGI: 21.3 µM
[31]
  GI50: 3.37 µM
  TGI: 14.6 µM
[32]
  GI50: 7.88 µM
  TGI: 20.8 µM
[33]
  GI50: 6.9 µM
  TGI: 20.3 µM
[34]
  GI50: 2.99 µM
  TGI: 13.5 µM
[35]
  GI50: 2.83 µM
  TGI: 11 µM
[36]
  GI50: 3.97 µM
  TGI: 18.7 µM
[37]
  GI50: 14.8 µM
  TGI: 39.1 µM
[38]
  GI50: 7.4 µM
  TGI: 21.5 µM
[39]
  GI50: 3.36 µM
  TGI: 14.7 µM
[40]
  GI50: 2.84 µM
  TGI: 15 µM
[41]
  GI50: 3.57 µM
  TGI: 14.3 µM
[42]
  GI50: 10.2 µM
  TGI: 24 µM
[43]
  GI50: 5.58 µM
  TGI: 21.4 µM
[44]
  GI50: 12.3 µM
  TGI: 25.3 µM
[45]
  GI50: 5.34 µM
  TGI: 18.8 µM
[46]
  GI50: 4.04 µM
  TGI: 16.4 µM
[47]
  GI50: 2.98 µM
  TGI: 14.1 µM
[48]
  GI50: 2.3 µM
  TGI: 7.45 µM
[49]
  GI50: 6.86 µM
  TGI: 20.3 µM
[50]
  GI50: 4.16 µM
  TGI: 14.9 µM
[51]
  GI50: 3.21 µM
  TGI: 14.8 µM
[52]
  GI50: 2.13 µM
  TGI: 10.6 µM
[53]
  GI50: 10.4 µM
  TGI: 22.6 µM
[54]
  GI50: 3.56 µM
  TGI: 15.2 µM
[55]
  GI50: 12.7 µM
  TGI: 25.4 µM
[56]
  GI50: 3.45 µM
  TGI: 14.6 µM
[57]
  GI50: 10.2 µM
  TGI: 23 µM
[58]
  GI50: 5.57 µM
  TGI: 22.1 µM
[59]
  GI50: 4.22 µM
  TGI: 18.6 µM
